Literature values as cited in US20020150615A1, “Injectable pharmaceutical composition comprising microdroplets of a camptothecin” (priority 2001, published 2002).

Key:
[1] = human whole blood
[2] = target: human serum albumin (HSA) (Homo sapiens, UniProt P02768); conditions: PBS at pH 7.4
human serum albumin (HSA), sequence (P02768 25-609): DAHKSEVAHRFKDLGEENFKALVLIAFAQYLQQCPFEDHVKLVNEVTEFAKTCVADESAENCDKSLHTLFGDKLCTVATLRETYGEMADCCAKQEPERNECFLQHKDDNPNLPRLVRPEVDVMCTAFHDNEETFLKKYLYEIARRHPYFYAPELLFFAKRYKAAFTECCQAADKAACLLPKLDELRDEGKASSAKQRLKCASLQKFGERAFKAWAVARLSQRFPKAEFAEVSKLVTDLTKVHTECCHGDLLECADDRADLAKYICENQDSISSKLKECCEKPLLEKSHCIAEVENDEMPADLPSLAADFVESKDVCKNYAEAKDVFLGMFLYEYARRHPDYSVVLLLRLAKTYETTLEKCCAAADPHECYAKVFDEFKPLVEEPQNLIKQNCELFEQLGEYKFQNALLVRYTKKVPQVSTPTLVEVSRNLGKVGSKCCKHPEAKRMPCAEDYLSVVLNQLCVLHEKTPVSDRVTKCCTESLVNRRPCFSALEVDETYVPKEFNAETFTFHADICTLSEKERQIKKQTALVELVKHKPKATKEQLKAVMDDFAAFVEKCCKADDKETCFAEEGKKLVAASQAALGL

## CC[C@@]1(O)C(=O)OCc2c1cc1n(c2=O)Cc2cc3ccccc3nc2-1 [camptothecin, 20(S)-camptothecin]
[1]
  half-life of lactone ring opening: 22 min
[2]
  affinity of the carboxylate form relative to the α-hydroxy lactone form: 150 fold
